{"source": "patent US20220073553A1", "about": "“METHOD FOR EXTRACTING HIGH-PURITY POLYDEOXYRIBONUCLEOTIDE FROM SALMON TESTES” (Bio Medi pharm Co. Ltd., priority 2020, published 2022)", "tested_on": "sperm from regions of salmon testes", "assay": "Motility of sperm from regions of salmon testes after hormone treatment", "type": "cell-based", "settings": "regions C of testes of male salmon caught in a river in October; treated with different types of hormones", "experimental": "The immature testicular regions A, B, and C are ground and diluted with an artificial seminal plasma. The grinding is performed by the following procedure. First, the testes are cut into small pieces with scissors such that the membranes surrounding the spermatids of the testes are peeled off. […] Here, care should be taken because a high speed of the impeller causes cell disruption, increasing the possibility that impurities may increase. Immature regions (except for regions D where semen leaks out, see FIG. 4) were collected by cutting the testes of male salmon. […] Regions C of the testes of male salmon caught in a river in October were treated with three different types of hormones: hGC, luteinizing hormone-releasing hormone (LhRH), and DHP.", "note": "“And” between values parts separate entries of the source, which are not always exact repeats. Equal entries are not always repeated. No end group written: not given here.", "data": [{"substance": "luteinizing hormone-releasing hormone (QHWSYGLRPG; ends and bridges not checked; UniProt P01148 24-33, looked up) [LhRH, hormone used for comparison with hCG]", "values": [{"measurement": "Sperm motility (%)", "result": "5% and 5 ± 2.8%"}]}]}
